In brackets after ≈: the same amount, converted by molar mass. Where two headings read alike, the source gives them in different places.
Legend:
[1] = system: S. aureus ATCC strains and MRSA; format: cell-based, Staphylococcus aureus
[2] = system: Coagulase negative Staphylococcus; experiment: Antibiotic susceptibility of coagulase negative Staphylococcus strains; format: cell-based
Staphylococcus hominis = format: cell-based
Protocol: (§1) It was also tested whether compounds #63 and #285 can inhibit other coagulase-negative Staphylococcus (CNS) including S. epidermidis, S. hominis, etc. […].

[3] = system: Staphylococcus epidermidis; format: cell-based
Protocol: as §1

S. aureus (ATCC 29213) = experiment: MIC80 on S. aureus; format: cell-based, Staphylococcus aureus; details: S. aureus ATCC 29213 (MSSA); ≥80% growth inhibition
Protocol: (§2) To further characterize the compounds, the minimal inhibitory concentration (MIC80) were determined for selected compounds. MIC80 is defined as the compound concentration at which ≥80% bacterial growth is inhibited compare to untreated controls. Meanwhile, for the selected compounds, cytotoxicity assays (CC50) were performed on a HepG2-derived hepatoblastoma cell line (HEPDES19). […] For CC50 evaluation, soluble tetrazolium dye (MTS) was used to measure mitochondrial toxicity in a human hepatoblastoma cell line (18). The bacteria (E. coli, S. saprophyticus and A. baumannii) used in MIC80 measurements were the same as that in the primary screening, but for Staphylococcus, S. aureus is used primarily because it is a common pathogen in Staphylococcaeae family, while S. saprophyticus is part of the normal human flora.

E. coli (ATCC 35218) = experiment: microbe, parasite or virus in culture; format: cell-based; details: E. coli ATCC 35218
Protocol: as §2

[4] = CNS1 (Coagulase negative Staphylococcus)
[5] = CNS2 (Coagulase negative Staphylococcus)
[6] = Se1 (Staphylococcus epidermidis)
[7] = Se2 (Staphylococcus epidermidis)
[8] = Se3 (Staphylococcus epidermidis)
[9] = Se4 (Staphylococcus epidermidis)
[10] = Se5 (Staphylococcus epidermidis)

SMILES	Antibiotic susceptibility ([1]; S. aureus ATCC 25923)	Antibiotic susceptibility ([1]; S. aureus ATCC 29213)	Antibiotic susceptibility ([1]; S. aureus ATCC BAA 976)	Antibiotic susceptibility ([1]; S. aureus ATCC BAA 977)	Antibiotic susceptibility ([1]; S. aureus ATCC BAA 1026)	Antibiotic susceptibility ([1]; Sa1 (MRSA))	Antibiotic susceptibility ([1]; Sa2 (MRSA))	Antibiotic susceptibility ([1]; Sa3 (MRSA))	Antibiotic susceptibility ([1]; Sa6 (MRSA))	Antibiotic susceptibility ([1]; Sa7 (MRSA))	Antibiotic susceptibility ([1]; Sa9 (MRSA))	Antibiotic susceptibility ([1]; Sa11 (MRSA))	Antibiotic susceptibility ([1]; Sa12 (MRSA))	Antibiotic susceptibility ([1]; Sa14 (MRSA))	Antibiotic susceptibility ([1]; Sa15 (MRSA))	Antibiotic susceptibility ([1]; Sa16 (MRSA))	Antibiotic susceptibility ([1]; Sa17 (MRSA))	Antibiotic susceptibility ([1]; Sa18 (MRSA))	Antibiotic susceptibility ([1]; Sa19 (MRSA))	Antibiotic susceptibility ([1]; Sa20 (MRSA))	further results
CN(C)[C@@H]1C(O)=C(C(N)=O)C(=O)[C@@]2(O)C(O)=C3C(=O)c4c(O)cccc4[C@@](C)(O)[C@H]3C[C@@H]12 [TET, Tetracycline]	S	S	S	S	S	S	S	S	S	S	S	S	S	S	S	S	S	S	S	S	Antibiotic susceptibility ([1]; Sa5 (MRSA)): S; Antibiotic susceptibility ([1]; Sa21 (MRSA)): S; Antibiotic susceptibility ([1]; Sa22 (MRSA)): S; Antibiotic susceptibility ([1]; Sa23 (MRSA)): S; Antibiotic susceptibility [2, 4]: S; Antibiotic susceptibility [2, 5]: S; Antibiotic susceptibility (Staphylococcus hominis; Sh1 (Staphylococcus hominis)): R; Antibiotic susceptibility (Staphylococcus hominis; Sh2 (Staphylococcus hominis)): R; Antibiotic susceptibility (Staphylococcus hominis; Sh3 (Staphylococcus hominis)): S; Antibiotic susceptibility [3, 6]: S; Antibiotic susceptibility [3, 7]: S; Antibiotic susceptibility [3, 8]: S; Antibiotic susceptibility [3, 9]: S; Antibiotic susceptibility [3, 10]: S
CCC[C@@H]1C[C@@H](C(=O)N[C@@H]([C@H]2O[C@H](SC)[C@H](O)[C@@H](O)[C@H]2O)[C@H](C)Cl)N(C)C1 [CLI, clindamycin]	S	S	S	R	R	R	S	R	R	S	R	R	R	R	R	R	S	S	R	S	Antibiotic susceptibility ([1]; Sa5 (MRSA)): R; Antibiotic susceptibility ([1]; Sa8 (MRSA)): S; Antibiotic susceptibility ([1]; Sa10 (MRSA)): R; Antibiotic susceptibility ([1]; Sa21 (MRSA)): S; Antibiotic susceptibility ([1]; Sa22 (MRSA)): S; Antibiotic susceptibility ([1]; Sa23 (MRSA)): S; Antibiotic susceptibility (Staphylococcus hominis; Sh1 (Staphylococcus hominis)): S; Antibiotic susceptibility (Staphylococcus hominis; Sh2 (Staphylococcus hominis)): S; Antibiotic susceptibility (Staphylococcus hominis; Sh3 (Staphylococcus hominis)): R; Antibiotic susceptibility [3, 6]: R; Antibiotic susceptibility [3, 7]: R; Antibiotic susceptibility [3, 8]: R; Antibiotic susceptibility [3, 9]: R; Antibiotic susceptibility [3, 10]: R
Cc1onc(-c2ccccc2)c1C(=O)N[C@@H]1C(=O)N2[C@@H]1SC(C)(C)[C@@H]2C(=O)O [OXA, Oxacillin]	S	S	R	S	R	R	R	R	R	R	R	R	R	R	R	R	R	R	R	R	Antibiotic susceptibility ([1]; Sa5 (MRSA)): R; Antibiotic susceptibility ([1]; Sa8 (MRSA)): R; Antibiotic susceptibility ([1]; Sa10 (MRSA)): R; Antibiotic susceptibility ([1]; Sa21 (MRSA)): R; Antibiotic susceptibility ([1]; Sa22 (MRSA)): R; Antibiotic susceptibility ([1]; Sa23 (MRSA)): R; Antibiotic susceptibility [2, 4]: R; Antibiotic susceptibility [2, 5]: R; Antibiotic susceptibility (Staphylococcus hominis; Sh1 (Staphylococcus hominis)): R; Antibiotic susceptibility (Staphylococcus hominis; Sh2 (Staphylococcus hominis)): R; Antibiotic susceptibility (Staphylococcus hominis; Sh3 (Staphylococcus hominis)): R; Antibiotic susceptibility [3, 6]: R; Antibiotic susceptibility [3, 7]: R; Antibiotic susceptibility [3, 8]: R; Antibiotic susceptibility [3, 9]: R; Antibiotic susceptibility [3, 10]: R
CO[C@H]1/C=C/O[C@@]2(C)Oc3c(C)c(O)c4c(O)c(c(/C=N/N5CCN(C)CC5)c(O)c4c3C2=O)NC(=O)/C(C)=C\C=C\[C@H](C)[C@H](O)[C@@H](C)[C@@H](O)[C@@H](C)[C@H](OC(C)=O)[C@@H]1C [RIF, Rifampin]	S	S	S	S	S	S	S	S	S	S	S	S	S	S	R	S	S	S	S	S	Antibiotic susceptibility ([1]; Sa21 (MRSA)): S; Antibiotic susceptibility ([1]; Sa22 (MRSA)): S; Antibiotic susceptibility ([1]; Sa23 (MRSA)): S; MRSA strains resistant ([1]; number of resistant strains out of 21 MRSA strains): 1/21; Antibiotic susceptibility [2, 4]: S; Antibiotic susceptibility [2, 5]: S; Antibiotic susceptibility (Staphylococcus hominis): S; Antibiotic susceptibility [3]: S
Cc1cc(O)c(=O)c(O)cc1-c1cccc2ccccc12 [Compound 146]	–	–	–	–	–	–	–	–	–	–	–	–	–	–	–	–	–	–	–	–	MIC80 S. aureus (S. aureus (ATCC 29213)): 19.8 µM (≈ 5.51 µg/mL)
CC[C@H]1OC(=O)[C@H](C)[C@@H](O[C@H]2C[C@@](C)(OC)[C@@H](O)[C@H](C)O2)[C@H](C)[C@@H](O[C@@H]2O[C@H](C)C[C@H](N(C)C)[C@H]2O)[C@](C)(O)C[C@@H](C)C(=O)[C@H](C)[C@@H](O)[C@]1(C)O [ERY, erythromycin]	S	S	R	R	R	R	R	R	R	R	R	R	R	R	R	R	R	R	R	R	Antibiotic susceptibility ([1]; Sa5 (MRSA)): R; Antibiotic susceptibility ([1]; Sa8 (MRSA)): R; Antibiotic susceptibility ([1]; Sa10 (MRSA)): R; Antibiotic susceptibility ([1]; Sa21 (MRSA)): R; Antibiotic susceptibility ([1]; Sa22 (MRSA)): R; Antibiotic susceptibility ([1]; Sa23 (MRSA)): R; Antibiotic susceptibility [2, 4]: I; Antibiotic susceptibility [2, 5]: S; Antibiotic susceptibility (Staphylococcus hominis; Sh1 (Staphylococcus hominis)): R; Antibiotic susceptibility (Staphylococcus hominis; Sh2 (Staphylococcus hominis)): S; Antibiotic susceptibility (Staphylococcus hominis; Sh3 (Staphylococcus hominis)): R; Antibiotic susceptibility [3, 6]: S; Antibiotic susceptibility [3, 7]: R; Antibiotic susceptibility [3, 8]: R; Antibiotic susceptibility [3, 9]: R; Antibiotic susceptibility [3, 10]: R
O=C(O)c1ccccc(=O)c1O [Compound 338]	–	–	–	–	–	–	–	–	–	–	–	–	–	–	–	–	–	–	–	–	MIC80 S. aureus (S. aureus (ATCC 29213)): 19.8 µM (≈ 3.29 µg/mL)
COc1ccc(Cl)cc1C(=O)Sc1cccccc1=O [Compound 681]	–	–	–	–	–	–	–	–	–	–	–	–	–	–	–	–	–	–	–	–	MIC80 E. coli (E. coli (ATCC 35218)): 19.8 µM (≈ 6.07 µg/mL); MIC80 S. aureus (S. aureus (ATCC 29213)): 19.8 µM (≈ 6.07 µg/mL)
O=c1cccccc1Sc1cccccc1=O [Compound 684]	–	–	–	–	–	–	–	–	–	–	–	–	–	–	–	–	–	–	–	–	MIC80 S. aureus (S. aureus (ATCC 29213)): 44.4 µM (≈ 10.8 µg/mL)
O=c1cccccc1SSc1cccccc1=O [Compound 685]	–	–	–	–	–	–	–	–	–	–	–	–	–	–	–	–	–	–	–	–	MIC80 E. coli (E. coli (ATCC 35218)): 19.8 µM (≈ 5.43 µg/mL); MIC80 S. aureus (S. aureus (ATCC 29213)): >100 µM

Source: patent publication US12502362B2, “Inhibitors of nucleotidyltransferase superfamily enzymes as antibiotics” (priority 2017, dated 2025)
